Here are results for eight molecules from ChEMBL document CHEMBL1201862, “PubChem BioAssay data set” (2004).

SMILES strings stand for the structures. Active and inactive are the calls of the source. Where only a bound is given, the exact number is not on record here.

Test [1] concerns the target Alkaline phosphatase, placental type (Homo sapiens, UniProt P05187). Kind of test: PLAP enzyme inhibitors, confirmation, biochemical, luminescence (AID 1512). The format is functional.
In test [2] the target is T1, RNA-binding protein pos-1 (Caenorhabditis elegans, UniProt G5EF15).
T1 sequence (G5EF15 whole entry): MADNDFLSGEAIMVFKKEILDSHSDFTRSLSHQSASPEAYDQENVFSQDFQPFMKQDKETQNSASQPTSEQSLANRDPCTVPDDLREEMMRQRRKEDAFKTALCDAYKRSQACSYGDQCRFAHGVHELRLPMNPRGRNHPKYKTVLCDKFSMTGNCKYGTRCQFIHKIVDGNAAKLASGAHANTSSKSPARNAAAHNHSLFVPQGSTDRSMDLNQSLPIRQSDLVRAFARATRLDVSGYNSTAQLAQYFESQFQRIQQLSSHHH
Kind of test: inhibitors of POS-1/mex-3 RNA binding, dose response, biochemical, fluorescence polarization (AID 1964).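 Also: purified POS-1 fused to maltose binding protein made in E. coli; potency of compounds blocking POS-1 binding to fluorescent RNA.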 A general note: Fluorescence polarisation rises when a labelled molecule tumbles more slowly, as on binding a larger partner.

In test [3] the target is T2, Zinc finger protein mex-5 (Caenorhabditis elegans, UniProt Q9XUB2).
T2 sequence (Q9XUB2 whole entry): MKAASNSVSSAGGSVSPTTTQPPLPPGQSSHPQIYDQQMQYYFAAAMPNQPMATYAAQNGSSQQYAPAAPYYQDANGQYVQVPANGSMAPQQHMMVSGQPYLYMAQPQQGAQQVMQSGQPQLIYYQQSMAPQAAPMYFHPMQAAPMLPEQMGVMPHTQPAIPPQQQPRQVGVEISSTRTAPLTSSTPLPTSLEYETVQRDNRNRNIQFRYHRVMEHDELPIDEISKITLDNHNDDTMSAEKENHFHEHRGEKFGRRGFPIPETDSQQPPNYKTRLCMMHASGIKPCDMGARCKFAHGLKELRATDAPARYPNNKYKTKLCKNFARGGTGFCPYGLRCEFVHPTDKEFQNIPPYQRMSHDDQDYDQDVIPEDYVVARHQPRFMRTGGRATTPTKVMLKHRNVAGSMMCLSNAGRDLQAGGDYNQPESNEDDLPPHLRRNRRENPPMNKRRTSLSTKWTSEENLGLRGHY
Kind of test: MEX-5/TCR-2 RNA interaction inhibitors, dose response, biochemical, C. elegans, fluorescence polarization (AID 1960).

For test [4], the target named is T3, Replicative DNA helicase DnaB (Mycobacterium tuberculosis, UniProt P9WMR3).
T3 sequence (P9WMR3 whole entry): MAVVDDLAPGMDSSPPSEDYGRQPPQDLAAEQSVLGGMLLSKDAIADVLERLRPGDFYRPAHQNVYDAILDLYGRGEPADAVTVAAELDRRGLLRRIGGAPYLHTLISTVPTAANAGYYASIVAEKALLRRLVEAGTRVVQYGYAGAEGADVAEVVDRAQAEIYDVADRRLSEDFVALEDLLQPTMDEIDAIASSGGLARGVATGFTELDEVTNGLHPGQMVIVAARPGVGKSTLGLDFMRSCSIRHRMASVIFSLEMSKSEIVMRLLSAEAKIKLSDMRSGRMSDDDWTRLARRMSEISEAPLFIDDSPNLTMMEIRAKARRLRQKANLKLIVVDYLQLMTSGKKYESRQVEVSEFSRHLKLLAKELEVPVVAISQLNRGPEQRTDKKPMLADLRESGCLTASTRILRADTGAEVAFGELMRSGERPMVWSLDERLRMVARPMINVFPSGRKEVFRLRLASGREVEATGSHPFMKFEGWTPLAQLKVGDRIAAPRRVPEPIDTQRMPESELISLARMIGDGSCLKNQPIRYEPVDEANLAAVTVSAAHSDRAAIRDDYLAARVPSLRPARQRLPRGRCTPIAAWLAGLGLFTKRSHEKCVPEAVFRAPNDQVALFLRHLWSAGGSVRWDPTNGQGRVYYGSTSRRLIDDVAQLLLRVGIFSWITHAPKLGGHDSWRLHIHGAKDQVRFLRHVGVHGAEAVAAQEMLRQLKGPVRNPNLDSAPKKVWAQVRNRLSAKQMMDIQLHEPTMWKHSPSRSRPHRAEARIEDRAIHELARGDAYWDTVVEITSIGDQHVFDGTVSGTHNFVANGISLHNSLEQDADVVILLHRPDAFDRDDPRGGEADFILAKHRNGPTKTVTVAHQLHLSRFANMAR
Kind of test: DnaB intein splicing inhibitors, dose response, biochemical, cell-free fluorescence (AID 449749). The class given is functional.

Another test has as its target T4, Protein RecA (Mycobacterium tuberculosis, UniProt P9WHJ3).
T4 sequence (P9WHJ3 whole entry): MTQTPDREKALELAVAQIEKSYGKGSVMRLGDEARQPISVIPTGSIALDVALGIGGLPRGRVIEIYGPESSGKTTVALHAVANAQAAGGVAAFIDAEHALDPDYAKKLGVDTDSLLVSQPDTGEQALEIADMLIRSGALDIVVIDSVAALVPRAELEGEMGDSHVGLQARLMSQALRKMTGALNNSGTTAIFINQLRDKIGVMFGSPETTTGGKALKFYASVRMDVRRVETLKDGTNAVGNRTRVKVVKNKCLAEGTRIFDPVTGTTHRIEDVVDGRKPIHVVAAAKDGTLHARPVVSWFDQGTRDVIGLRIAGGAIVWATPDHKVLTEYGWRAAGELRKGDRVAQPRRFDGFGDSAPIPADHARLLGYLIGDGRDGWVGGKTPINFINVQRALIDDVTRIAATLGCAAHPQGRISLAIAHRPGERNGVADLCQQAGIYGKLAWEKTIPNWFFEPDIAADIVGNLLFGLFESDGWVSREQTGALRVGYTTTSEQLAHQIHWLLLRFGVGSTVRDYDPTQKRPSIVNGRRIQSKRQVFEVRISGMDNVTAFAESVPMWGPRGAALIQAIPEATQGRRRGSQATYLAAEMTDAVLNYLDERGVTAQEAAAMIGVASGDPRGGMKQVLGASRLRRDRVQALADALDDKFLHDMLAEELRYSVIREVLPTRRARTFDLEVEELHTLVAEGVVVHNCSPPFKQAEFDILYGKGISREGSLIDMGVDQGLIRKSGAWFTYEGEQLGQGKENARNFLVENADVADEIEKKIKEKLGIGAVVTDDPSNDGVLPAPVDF
Kind of test: Fluorescence Cell-Free Homogeneous Dose Retest to Identify Inhibitors of RecA-Intein Splicing Activity. [Related pubchem assays (depositor defined):AID2097, AID2223, AID489010, AID492950]. The class given is functional.

Test [5] is described as follows: Intein inhibitors as potential Tuberculosis drugs, a cytotoxicity screen. [Related pubchem assays (depositor defined):AID2221, AID2223, AID434968, AID435010, AID449749, AID449750, AID489010]. The format is functional.
The test system of another test is T-cell. Kind of test: inhibitors of CD8+ T cell–vesicle binding, dose response, mouse 2C CD8+ T cells, flow cytometry (AID 485284). The class given is functional. (A flow cytometer gives signals particle by particle.)
The next test addresses Ion channel NompC (Danio rerio, UniProt Q7T1G6). Kind of test: Dose response cell-based high-throughput screening assay for agonists of the transient receptor potential channel N1 (TRPN1). [Related pubchem assays (depositor defined):AID1424, AID1448]. The format is functional.
A further test concerns the target T5, Mucolipin-3 (Homo sapiens, UniProt Q8TDD5).
T5 sequence (Q8TDD5 whole entry): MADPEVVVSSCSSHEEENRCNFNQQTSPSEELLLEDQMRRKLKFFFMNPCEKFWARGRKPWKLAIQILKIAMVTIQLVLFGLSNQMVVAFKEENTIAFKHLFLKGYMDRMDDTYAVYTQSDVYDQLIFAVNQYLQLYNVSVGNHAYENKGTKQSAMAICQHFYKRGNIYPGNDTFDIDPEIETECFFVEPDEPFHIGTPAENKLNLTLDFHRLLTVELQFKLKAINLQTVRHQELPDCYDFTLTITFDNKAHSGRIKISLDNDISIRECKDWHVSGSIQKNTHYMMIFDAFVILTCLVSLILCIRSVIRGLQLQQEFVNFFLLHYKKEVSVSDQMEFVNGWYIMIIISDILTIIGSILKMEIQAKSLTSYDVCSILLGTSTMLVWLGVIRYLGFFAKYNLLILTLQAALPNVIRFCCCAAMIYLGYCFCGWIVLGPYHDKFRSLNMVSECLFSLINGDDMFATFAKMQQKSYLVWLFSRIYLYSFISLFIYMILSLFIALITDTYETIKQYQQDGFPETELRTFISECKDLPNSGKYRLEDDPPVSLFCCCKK
Kind of test: Fluorescence counterscreen assay for […] agonists: dose response cell-based high-throughput screening assay to identify agonists of the transient receptor potential channel ML3 (TRPML3). [Related pubchem assays: 1424, 1448 ]. The format is functional. Background: A counterscreen serves to expose hits that act by an unwanted route or on another target.

For test [6], the target named is T6, E3 ubiquitin-protein ligase XIAP (Homo sapiens, UniProt P98170). Kind of test: Counter Screen using XIAP-Bir3 for Chemical Antagonists of Bir1/2 domains of IAP-family anti-apoptotic proteins. [Related pubchem assays (depositor defined):AID1018, AID1449, AID1514, AID1638, AID1749, AID1750, AID488957, AID488963].
For test [7], the target named is T6, E3 ubiquitin-protein ligase XIAP. Kind of test: XIAP antagonists, biochemical, IAP family, fluorescence polarization (AID 1018). The format is functional.
In test [8] the target is T7, Intestinal-type alkaline phosphatase (Homo sapiens, UniProt P09923). Kind of test: Dose Response confirmation of uHTS hits from a small molecule inhibitors of human intestinal alkaline phosphatase via a luminescent assay. [Related pubchem assays (depositor defined):AID2544, AID2574]. The format is functional.
The target in test [9] is T7, Intestinal-type alkaline phosphatase. Kind of test: human intestinal alkaline phosphatase activators, dose response, biochemical, luminescence, uHTS hits (AID 463120). The format is functional.
Test [10] has as its target T8, G-protein coupled receptor 35 (Homo sapiens, UniProt Q9HC97). Kind of test: SAR analysis of Antagonists of the GPR35 Receptor using an Image-Based Assay - Set 4. [Related pubchem assays (depositor defined):[…]]. The format is functional.
In test [11] the target is T8, G-protein coupled receptor 35. Kind of test: SAR analysis of Agonists of the GPR35 Receptor using an Image-Based Assay - Set 3. [Related pubchem assays (depositor defined):AID1961, AID1965]. The format is functional.
The target in test [12] is T9, Cannabinoid receptor 1 (Homo sapiens, UniProt P21554). Kind of test: SAR analysis of agonists of the Cannabinoid Receptor 1 using an Image-Based Assay - Set 3. [Related pubchem assays (depositor defined):AID1961, AID1965]. The class given is functional.
Test [13] deals with T10, Cannabinoid receptor 2 (Homo sapiens, UniProt P34972). Kind of test: SAR analysis of antagonists of the Cannabinoid Receptor 2 using an Image-Based Assay - Set 2. [Related pubchem assays (depositor defined):AID1961, AID1965]. The format is functional.
Test [14] addresses G-protein coupled receptor 55 (Homo sapiens, UniProt Q9Y2T6). Kind of test: SAR analysis of selective Agonists of GPR55 using an Image-Based Assay - Set 2. [Related pubchem assays (depositor defined):AID1961, AID1965]. The format is functional.
For test [15], the target named is T9, Cannabinoid receptor 1. Kind of test: SAR analysis of antagonists of the Cannabinoid Receptor 1 using an Image-Based Assay - Set 3. [Related pubchem assays (depositor defined):AID1961, AID1965]. The class given is functional.
The target in test [16] is T10, Cannabinoid receptor 2. Kind of test: SAR analysis of agonists of the Cannabinoid Receptor 2 using an Image-Based Assay - Set 2. [Related pubchem assays (depositor defined):AID1961, AID1965]. The format is functional.
The target in the next test is Large T antigen (Simian virus 40, UniProt P03070). The class given is functional, Betapolyomavirus macacae.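 Also: Confirmatory-stage PubChem screen for compounds that inhibit SV40 T antigen.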
Test [17] addresses T11, Voltage-gated N-type calcium channel alpha-1B subunit/Amyloid beta A4 precursor protein-binding family A member 1 (Homo sapiens, UniProt Q00975+Q02410). The format is protein assay.
The target in test [18] is T11, Voltage-gated N-type calcium channel alpha-1B subunit/Amyloid beta A4 precursor protein-binding family A member 1. The class given is protein assay. This is another data set of the same source.
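For CC50 in this document: cells exposed to compound for 72 hours before luminescence readout.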

T11 sequence (Q00975 whole entry): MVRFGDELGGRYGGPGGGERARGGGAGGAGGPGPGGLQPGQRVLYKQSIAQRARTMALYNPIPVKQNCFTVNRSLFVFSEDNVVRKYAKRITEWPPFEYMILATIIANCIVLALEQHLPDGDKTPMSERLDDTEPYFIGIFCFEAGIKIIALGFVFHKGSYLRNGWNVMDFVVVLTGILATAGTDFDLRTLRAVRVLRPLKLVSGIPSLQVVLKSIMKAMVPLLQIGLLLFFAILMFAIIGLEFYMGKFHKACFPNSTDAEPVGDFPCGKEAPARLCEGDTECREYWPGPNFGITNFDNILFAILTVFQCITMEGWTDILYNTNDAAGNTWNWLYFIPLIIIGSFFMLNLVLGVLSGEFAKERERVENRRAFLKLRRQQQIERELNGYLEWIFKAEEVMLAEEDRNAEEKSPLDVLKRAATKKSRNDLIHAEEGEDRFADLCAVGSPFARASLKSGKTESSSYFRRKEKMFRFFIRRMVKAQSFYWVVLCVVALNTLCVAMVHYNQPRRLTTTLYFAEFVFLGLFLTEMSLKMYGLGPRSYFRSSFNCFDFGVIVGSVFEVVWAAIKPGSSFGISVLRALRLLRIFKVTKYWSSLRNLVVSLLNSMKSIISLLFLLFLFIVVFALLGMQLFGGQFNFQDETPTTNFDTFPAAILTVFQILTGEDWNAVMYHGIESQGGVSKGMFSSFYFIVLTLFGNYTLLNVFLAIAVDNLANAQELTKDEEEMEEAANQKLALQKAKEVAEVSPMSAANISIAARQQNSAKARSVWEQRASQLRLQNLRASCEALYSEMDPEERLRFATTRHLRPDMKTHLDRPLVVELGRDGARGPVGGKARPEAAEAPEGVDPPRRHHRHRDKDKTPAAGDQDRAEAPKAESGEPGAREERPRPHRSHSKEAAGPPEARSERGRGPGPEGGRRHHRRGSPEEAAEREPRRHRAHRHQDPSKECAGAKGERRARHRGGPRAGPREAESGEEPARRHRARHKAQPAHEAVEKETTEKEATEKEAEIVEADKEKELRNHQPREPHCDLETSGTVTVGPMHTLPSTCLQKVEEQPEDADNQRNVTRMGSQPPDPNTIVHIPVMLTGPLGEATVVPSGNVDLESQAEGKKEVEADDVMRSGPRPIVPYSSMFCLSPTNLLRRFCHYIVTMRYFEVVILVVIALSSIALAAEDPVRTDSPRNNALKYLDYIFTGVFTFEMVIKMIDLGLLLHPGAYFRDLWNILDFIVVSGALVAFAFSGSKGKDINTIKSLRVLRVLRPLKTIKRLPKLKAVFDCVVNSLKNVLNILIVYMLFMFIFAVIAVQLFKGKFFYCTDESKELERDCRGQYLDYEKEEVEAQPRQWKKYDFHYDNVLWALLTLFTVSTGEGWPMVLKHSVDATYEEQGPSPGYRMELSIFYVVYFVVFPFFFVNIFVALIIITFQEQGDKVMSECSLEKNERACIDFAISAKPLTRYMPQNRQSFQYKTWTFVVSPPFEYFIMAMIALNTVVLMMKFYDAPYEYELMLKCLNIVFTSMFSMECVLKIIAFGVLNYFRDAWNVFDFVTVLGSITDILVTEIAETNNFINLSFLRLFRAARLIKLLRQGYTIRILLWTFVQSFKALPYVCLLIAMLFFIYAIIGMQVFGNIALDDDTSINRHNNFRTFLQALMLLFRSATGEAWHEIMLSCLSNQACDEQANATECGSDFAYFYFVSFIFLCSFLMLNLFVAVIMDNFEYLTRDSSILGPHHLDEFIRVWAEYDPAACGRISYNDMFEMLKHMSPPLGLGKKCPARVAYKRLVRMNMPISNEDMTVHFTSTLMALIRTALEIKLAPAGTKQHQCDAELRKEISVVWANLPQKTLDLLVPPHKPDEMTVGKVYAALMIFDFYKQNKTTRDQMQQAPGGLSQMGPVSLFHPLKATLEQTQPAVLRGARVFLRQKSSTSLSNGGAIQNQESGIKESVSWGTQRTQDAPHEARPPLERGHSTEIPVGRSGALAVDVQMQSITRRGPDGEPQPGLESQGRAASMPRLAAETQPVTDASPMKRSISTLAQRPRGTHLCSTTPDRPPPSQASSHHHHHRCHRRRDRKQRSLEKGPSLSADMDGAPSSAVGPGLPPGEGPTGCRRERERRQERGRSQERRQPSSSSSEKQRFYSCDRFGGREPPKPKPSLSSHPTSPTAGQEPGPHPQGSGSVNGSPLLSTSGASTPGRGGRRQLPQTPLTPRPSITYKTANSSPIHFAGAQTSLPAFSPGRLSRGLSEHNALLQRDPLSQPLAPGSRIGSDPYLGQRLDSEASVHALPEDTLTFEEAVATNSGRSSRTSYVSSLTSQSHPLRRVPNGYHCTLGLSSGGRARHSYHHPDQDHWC
T11 sequence (Q02410 whole entry): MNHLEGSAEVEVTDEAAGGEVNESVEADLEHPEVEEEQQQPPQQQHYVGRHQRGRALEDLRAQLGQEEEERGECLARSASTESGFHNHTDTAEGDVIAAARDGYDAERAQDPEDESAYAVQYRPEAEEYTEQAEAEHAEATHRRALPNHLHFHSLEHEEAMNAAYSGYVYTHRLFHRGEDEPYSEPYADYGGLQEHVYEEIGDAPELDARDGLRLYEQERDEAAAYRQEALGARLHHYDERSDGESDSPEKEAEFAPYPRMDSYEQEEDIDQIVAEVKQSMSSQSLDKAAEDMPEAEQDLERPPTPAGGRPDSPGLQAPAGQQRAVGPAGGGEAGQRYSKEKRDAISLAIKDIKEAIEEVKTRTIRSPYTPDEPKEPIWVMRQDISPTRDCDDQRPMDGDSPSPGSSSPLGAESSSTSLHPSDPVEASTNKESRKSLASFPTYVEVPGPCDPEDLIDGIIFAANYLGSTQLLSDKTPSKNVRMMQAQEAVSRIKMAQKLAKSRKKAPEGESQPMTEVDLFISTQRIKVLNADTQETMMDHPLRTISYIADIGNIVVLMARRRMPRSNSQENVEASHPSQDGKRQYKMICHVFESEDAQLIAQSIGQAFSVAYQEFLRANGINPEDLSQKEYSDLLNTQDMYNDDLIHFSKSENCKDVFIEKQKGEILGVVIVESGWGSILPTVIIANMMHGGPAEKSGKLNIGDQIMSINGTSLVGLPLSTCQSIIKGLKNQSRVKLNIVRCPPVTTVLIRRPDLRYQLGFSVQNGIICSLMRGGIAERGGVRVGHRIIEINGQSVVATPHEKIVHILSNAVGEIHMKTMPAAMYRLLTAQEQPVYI
T6 sequence (P98170 whole entry): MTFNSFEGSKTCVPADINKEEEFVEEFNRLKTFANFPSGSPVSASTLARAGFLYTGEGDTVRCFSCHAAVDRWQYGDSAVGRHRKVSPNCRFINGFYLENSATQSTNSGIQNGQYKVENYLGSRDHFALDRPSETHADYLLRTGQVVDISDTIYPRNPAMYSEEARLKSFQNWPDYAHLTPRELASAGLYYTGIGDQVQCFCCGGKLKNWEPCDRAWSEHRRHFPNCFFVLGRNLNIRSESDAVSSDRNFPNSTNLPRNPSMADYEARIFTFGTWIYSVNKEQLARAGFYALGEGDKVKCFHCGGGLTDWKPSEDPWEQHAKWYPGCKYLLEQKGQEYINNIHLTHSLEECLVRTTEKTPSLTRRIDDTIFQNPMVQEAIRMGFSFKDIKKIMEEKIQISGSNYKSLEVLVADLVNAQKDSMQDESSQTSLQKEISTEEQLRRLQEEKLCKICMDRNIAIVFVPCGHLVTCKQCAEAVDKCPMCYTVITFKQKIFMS
T9 sequence (P21554 whole entry): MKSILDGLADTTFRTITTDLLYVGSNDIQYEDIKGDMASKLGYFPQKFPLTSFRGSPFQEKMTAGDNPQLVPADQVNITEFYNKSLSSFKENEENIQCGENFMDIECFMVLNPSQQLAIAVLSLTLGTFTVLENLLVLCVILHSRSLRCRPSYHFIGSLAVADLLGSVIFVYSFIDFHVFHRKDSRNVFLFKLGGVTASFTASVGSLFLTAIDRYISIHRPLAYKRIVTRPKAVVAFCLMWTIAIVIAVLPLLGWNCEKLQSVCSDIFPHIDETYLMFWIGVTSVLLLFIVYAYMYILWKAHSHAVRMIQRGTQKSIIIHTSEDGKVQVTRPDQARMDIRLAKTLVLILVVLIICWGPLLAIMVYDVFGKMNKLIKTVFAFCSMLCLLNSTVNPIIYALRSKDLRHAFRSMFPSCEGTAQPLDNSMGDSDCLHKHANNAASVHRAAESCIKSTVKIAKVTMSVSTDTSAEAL
T10 sequence (P34972 whole entry): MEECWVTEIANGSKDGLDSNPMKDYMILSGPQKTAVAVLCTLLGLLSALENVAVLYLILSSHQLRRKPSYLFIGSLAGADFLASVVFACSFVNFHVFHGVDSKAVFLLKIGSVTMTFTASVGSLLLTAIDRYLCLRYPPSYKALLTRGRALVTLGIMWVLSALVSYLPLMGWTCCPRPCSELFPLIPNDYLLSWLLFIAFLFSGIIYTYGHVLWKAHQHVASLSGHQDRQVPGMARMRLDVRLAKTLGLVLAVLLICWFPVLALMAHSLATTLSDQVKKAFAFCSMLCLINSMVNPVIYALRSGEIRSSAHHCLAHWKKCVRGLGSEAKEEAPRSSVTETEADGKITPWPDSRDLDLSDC
T7 sequence (P09923 whole entry): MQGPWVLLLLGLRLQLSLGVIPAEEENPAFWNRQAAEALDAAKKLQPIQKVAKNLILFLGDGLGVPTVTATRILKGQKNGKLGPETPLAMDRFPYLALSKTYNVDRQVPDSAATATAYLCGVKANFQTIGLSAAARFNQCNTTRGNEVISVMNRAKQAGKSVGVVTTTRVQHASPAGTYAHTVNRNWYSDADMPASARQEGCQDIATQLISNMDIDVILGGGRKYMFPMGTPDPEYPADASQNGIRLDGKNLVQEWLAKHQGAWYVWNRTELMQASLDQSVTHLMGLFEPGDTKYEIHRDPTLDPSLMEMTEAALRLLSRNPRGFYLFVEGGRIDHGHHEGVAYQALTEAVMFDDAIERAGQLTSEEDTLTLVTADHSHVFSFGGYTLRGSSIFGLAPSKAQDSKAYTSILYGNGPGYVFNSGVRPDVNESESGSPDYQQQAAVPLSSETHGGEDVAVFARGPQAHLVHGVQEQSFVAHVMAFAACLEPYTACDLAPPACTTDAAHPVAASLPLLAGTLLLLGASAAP

Broadly, the IC50 is the concentration needed to halve the response being measured. The EC50 is the concentration that produces a half-maximal response. With `COCCNC(=O)CCC(=O)NNc1nc2ccccc2c2nc(C)nn12`, the IC50 in test [1] was > 100 µM (inactive). In addition, the EC50 in test [2] was 118 µM (active); in [3] it was 1.21 µM (active).
As a reminder, the AC50 is the midpoint of the concentration-response curve, whichever way the signal moves. By CC50 is commonly meant the concentration that lowers cell viability or growth by half. Consider `O=C(CCl)N1c2ccccc2OCC1c1ccccc1` (stereo not drawn), for which the AC50 in test [4] was 2.58 µM (active). In addition, at Protein RecA, the EC50 is 0.606 µM (active). Further, the CC50 in test [5] was 6.48 µM (active).
On to `CCCCn1c(N)c(N(CCOC)C(=O)c2ccc(-c3ccc([N+](=O)[O-])cc3)o2)c(=O)[nH]c1=O`, for which the EC50 with T-cell is 23.9 µM (inactive).
On to `COc1cc(OC)c(C(=O)NC2CCCCCC2)cc1OC`, for which the EC50 was > 29.9 µM (inactive) at Ion channel NompC and > 29.9 µM (not active) at Mucolipin-3.
Regarding `CCN(Cc1ccccc1)C(=O)/C=C/c1ccccc1[N+](=O)[O-]`, the IC50 was > 100 µM (inactive) in [6] and > 100 µM (not active) in [7].
On to `CC(=O)c1ccc(NC(=O)C2CCCN2S(=O)(=O)c2cccs2)cc1` (stereo not drawn), for which, in [8], the IC50 was > 100 µM (inactive). Also, in [9], the EC50 was > 100 µM (inactive).
Turning to `Cc1cc2cc3c(cc2n2c(SCC(=O)Nc4nc(-c5ccccc5)cs4)nnc12)OCO3`, the figures for the IC50 (in test [10]; on Cannabinoid receptor 2 [13]; on Cannabinoid receptor 1 [15]) were > 32 µM (inactive), > 32 µM (inactive) and 15.8 µM (inactive), respectively. Besides, the EC50 in test [11] was > 32 µM (inactive); on Cannabinoid receptor 1 [12] it was > 32 µM (inactive); in test [14], 0.0648 µM (active); at Cannabinoid receptor 2 [16], > 32 µM (inactive).
`N#Cc1c(O)nsc1Nc1ccccc1C(F)(F)F`: the IC50 at Large T antigen is 56.5 µM (active); in test [17], > 50 µM (inactive); in test [18], 7.54 µM (active).
